# Earlier results, collected in US20160317610A1, “COMPOSITIONS AND METHODS FOR TREATING OVARIAN CANCER INCLUDING PREVENTING THE […]” (University of Southern California, priority 2013, published 2016).
# Tested on: advanced OC
structure (smiles),measurement,value
"CC(C)[C@H]1C(=O)N[C@@H](CCCN=C(N)N)C(=O)NCC(=O)N[C@@H](CC(=O)O)C(=O)N[C@H](Cc2ccccc2)C(=O)N1C [Cilengitide, cyclo(L-Arg-Gly-L-Asp-D-Phe-N-methyl-L-Val)]",clinical efficacy,failed to show clinical efficacy
